Here are results for two molecules from patent US9072741B2, “Methods of treating liver fibrosis and pre-cirrhosis with epidermal growth factor receptor inhibitors” (The General Hospital Corporation, priority 2009, dated 2015).

The subject of one assay is advanced HCC. The settings on record: recent clinical trials (Philip et al.; Thomas et al.); cited from earlier work.
For assay [1], the system named is activated hepatic stellate cells. The assay can be described thus: α-SMA staining of liver sections for activated hepatic stellate cells in DEN-treated rats. It is filed as in vivo, male Wistar rats. How it is done:
FIGS. 2B-2G are a series of six panels showing representative pictures of Masson's trichome (B-D) and α-SMA stains (E-G) of liver sections from rats receiving weekly intraperitoneal injections of DEN (50 mg/kg) for 18 weeks and (B and E) vehicle only, (C and F) 0.5 mg/kg erlotinib (Erl 0.5), or (D and G) 2 mg/kg erlotinib (Erl 2) during weeks 12-18.
FIGS. 6B-6E are a series of four panels showing representative pictures of Masson's trichrome (B-C) and α-SMA stains (D-E) of liver sections from rats receiving weekly intraperitoneal injections of DEN (50 mg/kg) for 18 weeks and (B and D) vehicle only or (C and E) 18 mg/kg lapatinib during weeks 12-18.
Repeated injury to the liver causes damage to hepatocytes and activates resident macrophages called Kupffer cells. Damaged hepatocytes and activated Kupffer cells secrete cytokines and growth factors into the liver milieu, which activate hepatic stellate cells (Friedman, Gastroenterology 134:1655-69, 2008). Normally, hepatic stellate cells are quiescent and store vitamin A and fat. Upon activation, they differentiate into a myofibroblast-phenotype and express α-smooth muscle actin (α-SMA) (Friedman, Gastroenterology 134:1655-69, 2008). […] The degree of liver disease (fibrosis versus cirrhosis) is pathologically assessed through trichrome staining of collagen by the method of Ishak (Mod Pathol 7:690-713, 1994). […]

Assay [2] relates to DEN-induced liver fibrosis/cirrhosis. The assay can be described thus: DEN-induced rat model: fibrosis/cirrhosis by Ishak score of Masson's trichrome stained liver sections. The settings on record: for mode of Ishak score: vehicle mode 6; for range of Ishak score: vehicle range 2-6. Type of assay: in vivo, male Wistar rats. As to the method: FIG. 2A is a bar graph depicting the Ishak score of male Wistar rats receiving weekly intraperitoneal injections of DEN (50 mg/kg) for 18 weeks and vehicle only (n=16), 0.5 mg/kg erlotinib (Erl 0.5; n=8), or 2 mg/kg erlotinib (Erl 2; n=8) during weeks 12-18.
FIG. 6A is a bar graph depicting the Ishak score of male Wistar rats receiving weekly intraperitoneal injections of DEN (50 mg/kg) for 18 weeks and vehicle only (n=8) or 18 mg/kg lapatinib (n=8) during weeks 12-18. *, significant.
Erlotinib is a drug used to treat non-small cell lung cancer and pancreatic cancer. Erlotinib specifically targets the EGFR, which is highly expressed and occasionally mutated in various forms of cancer, by binding to the adenosine triphosphate (ATP) binding site of the receptor (Raymond et al., Drugs 60 Suppl 1:15-23, 2000). To investigate erlotinib as a chemoprevention strategy for liver fibrogenesis, male Wistar rats were given a weekly intraperitoneal injection of 50 mg/kg DEN to induce cirrhosis and HCC (Lee et al., Korean J Hepatol 13:70-80, 2007). Erlotinib was administered by intraperitoneal injection daily (5× a week) during weeks 12-18 at a dose of 2 mg/kg, which is equivalent to chemotherapeutic dosing regimens in humans. […] In a separate study, the dose of erlotinib was lowered to 0.5 mg/kg.
Repeated injury to the liver causes damage to hepatocytes and activates resident macrophages called Kupffer cells. Damaged hepatocytes and activated Kupffer cells secrete cytokines and growth factors into the liver milieu, which activate hepatic stellate cells (Friedman, Gastroenterology 134:1655-69, 2008). Normally, hepatic stellate cells are quiescent and store vitamin A and fat. Upon activation, they differentiate into a myofibroblast-phenotype and express α-smooth muscle actin (α-SMA) (Friedman, Gastroenterology 134:1655-69, 2008). Activated hepatic stellate cells deposit fibrous collagen into the space of Disse acutely causing fibrosis and chronically causing cirrhosis. The degree of liver disease (fibrosis versus cirrhosis) is pathologically assessed through trichrome staining of collagen by the method of Ishak (Mod Pathol 7:690-713, 1994).
In early stages of liver fibrosis, collagen deposition is localized around the portal tracts (Ishak score 1 or 2), but it bridges between portal tracts at later stages of fibrosis (Ishak score 3 or 4) and ultimately forms nodules around regenerating hepatocytes during cirrhosis (Ishak score 5 or 6). Although there is some heterogeneity in this model, intraperitoneal administration of DEN causes, on average, an Ishak score 0.8 (range 0-2) fibrosis after 8 weeks, an Ishak score 4.1 (range 3-6) fibrosis/cirrhosis after 12 weeks, and an Ishak score 5.1 (range 4-6) cirrhosis after 18 weeks. Consistent with this, hepatic stellate cell activation increases over time after DEN administration as assessed by α-SMA staining.
Remarkably, erlotinib inhibited fibrogenesis. […] The range for 16 vehicle animals was 2-6 with a mode of 6 as illustrated in FIG. 2B. […] To further examine the effects of erlotinib on liver fibrosis, α-SMA staining was performed for activated hepatic stellate cells.
To investigate lapatinib as a chemoprevention strategy for liver fibrogenesis, male Wistar rats were given a weekly intraperitoneal injection of 50 mg/kg DEN to induce cirrhosis and HCC (Lee et al., Korean J Hepatol 13:70-80, 2007). Lapatinib was administered by intraperitoneal injection daily (5× a week) during weeks 12-18 at a dose of 18 mg/kg.
Similar to erlotinib, lapatinib inhibited fibrogenesis. […] To further examine the effects of lapatinib on liver fibrosis, α-SMA staining was performed for activated hepatic stellate cells.

Assay [3] concerns DEN-induced fibrosis and cirrhosis. The assay can be described thus: DEN-treated rats with liver biopsy before and after treatment (disease progression within the same animal). It is filed as in vivo, male Wistar rats. How it is done: FIG. 3A is a scheme of the experiment. Male Wistar rats received weekly intraperitoneal injections of DEN (50 mg/kg) for 18 weeks. After 12 weeks, the rats underwent a survival hepatectomy and a liver biopsy was removed for histology. Rats then received vehicle or erlotinib (2 mg/kg) daily (5 days/week) during weeks 13-18. Rats were sacrificed at 19 weeks after a one-week washout of DEN. FIG. 3B is a bar graph showing Ishak scores from Masson's trichrome stains of liver sections from each animal. **p<0.01 compared to vehicle. FIG. 3C is a bar graph depicting the number of tumor nodules that were greater than 5 mm in diameter in rats that received vehicle or erlotinib. **p<0.01 compared to vehicle. FIG. 3D is a bar graph showing the weights of livers at the time of sacrifice expressed as percent body weight.
To further examine the ability of erlotinib to reverse fibrosis and cirrhosis, liver biopsies were performed on DEN-treated rats before and after they received erlotinib (FIG. 3A) to determine disease progression within the same animal.

Each structure is given as a SMILES string. Where “and” joins values, the source holds several entries; their conditions need not be identical. Equal values may be shown once. Marks after values point to notes of the source that are not given here.

`C#Cc1cccc(Nc2ncnc3cc(OCCOC)c(OCCOC)cc23)c1` [erlotinib, 4-Quinazolinamine, N-(3-ethynylphenyl)-6,7-bis(2-methoxyethoxy)]: in the assay with advanced HCC, the “disease control in advanced HCC patients” value is “improved disease control in only a minority”. Besides, the “activation of hepatic stellate cells (α-SMA staining)” value in assay [1] (0.5 and 2 mg/kg weeks 12-18 vs vehicle) is given as “dramatically decreased the activation of hepatic stellate cells in a dose-dependent fashion”. The “average Ishak score” value in assay [2] (0.5 mg/kg weeks 12-18, n=8, vehicle 4.9) was found to be 4.3; in assay [2] (2 mg/kg weeks 12-18, n=8, vehicle 4.9) it was 2.6. The “mode of Ishak score” value is 4 in assay [2] (0.5 mg/kg weeks 12-18) and 2 in assay [2] (2 mg/kg weeks 12-18). For the same molecule, the “range of Ishak score” value in assay [2] (0.5 mg/kg weeks 12-18) is 3-6; in assay [2] (2 mg/kg weeks 12-18), 1-4. Moreover, in assay [3] (2 mg/kg weeks 13-18, eight animals), the “animals with reversed disease progression” value is listed as “two out of eight”. Moreover, in assay [3] (2 mg/kg weeks 13-18 vs vehicle), the “fibrosis and cirrhosis (Ishak, FIG. 3B)” value is “significantly less fibrosis and cirrhosis”. Moreover, the “tumorigenesis (tumor nodules greater than 5 mm, FIG. 3C)” value in assay [3] (2 mg/kg weeks 13-18 vs vehicle) is “significant decrease in tumorigenesis”. For the same molecule, in assay [3] (2 mg/kg weeks 13-18 vs vehicle, at sacrifice), the “liver weight (percent body weight, FIG. 3D)” value is “decrease in liver weight”. For the same molecule, in assay [3] (average of 8 rats after 2 mg/kg weeks 13-18, vehicle 5.8), the “Ishak 19 weeks, AVERAGE” value is given as 4.3*. Also, the “Change of Ishak score, AVERAGE” value in assay [3] (average of 8 rats, 2 mg/kg weeks 13-18, vehicle +2.2) is on record as “+1”. For the same molecule, in assay [3] (average of 8 rats, biopsy before treatment, vehicle 3.6), the “Ishak 13 weeks, AVERAGE” value came to 3.3. Also, the “Change of Ishak score” value in assay [3] (individual rats, 19 weeks vs 13 weeks, 2 mg/kg weeks 13-18, 2 mg/kg) is “+3 and +2 (3×) and −2 and −1 and +1 (2×)”. The “Ishak 19 weeks” value in assay [3] (individual rats, after 2 mg/kg daily (5 days/week) weeks 13-18) is 6 and 5 (2×) and 4 (3×) and 3 (2×). Besides, the “Ishak 13 weeks” value in assay [3] (individual rats, biopsy before treatment (baseline)) was 3 (4×) and 2 (2×) and 5 (2×).
In the case of `CS(=O)(=O)CCNCc1ccc(-c2ccc3ncnc(Nc4ccc(OCc5cccc(F)c5)c(Cl)c4)c3c2)o1` [lapatinib, 4-Quinazolinamine, N-(3-chloro-4-((3-fluorophenyl)methoxy)phenyl)-6-(5-(((2-(methylsulfonyl)ethyl)amino)methyl)-2-furanyl)], the “activation of hepatic stellate cells (α-SMA staining)” value in assay [1] (18 mg/kg weeks 12-18 vs vehicle) is recorded as “dramatically decreased the activation of hepatic stellate cells in a dose-dependent fashion”. The “average Ishak score” value in assay [2] (18 mg/kg weeks 12-18, n=8, vehicle 5.6) is listed as 4.3.
